Holding throughout (type): cell-based, human
One assay concerns UO-31. The assay can be described thus: 3H thymidine proliferation assay, UO-31. The note with it: 3H thymidine method, 72 h incubation, read-out: EC50, UO-31. The protocol: (§1) This example generally describes the procedures used to assay the antiproliferative activity of compounds of this invention or their conjugates. Human tumor cell lines were obtained from the American Type Culture Collection (ATCC), P.O. Box 1549, Manassas, Va. 20108, USA, and cultured according to instruction from the ATCC. Cells were seeded at 1.0×10^3 or 1.0×10^4 cells/well in 96-well plates for 3 h for ATP assays or ^3H thymidine assays, respectively. 1:3 serial dilutions of free (unconjugated) compounds or their conjugates were added to the wells. Plates were allowed to incubate for 24 to 72 h. The ^3H thymidine plates were pulsed with 1.0 μCi of ^3H-thymidine per well for the last 24 hours of the total incubation period, harvested, and read on a Top Count Scintillation Counter (Packard Instruments, Meriden, Conn.). ATP levels in the ATP plates were measured using the […]-GLO® Luminescent Cell Viability kit following the manufacturer's manual and read on a GLOMAX® 20/20 luminometer (both from Promega, Madison, Wis., USA). The EC50 values—the concentration at which an agent inhibits or reduces cell proliferation by 50% —were determined using PRISM™ software, version 4.0 (GraphPad Software, La Jolla, Calif., USA).
(§2) Using the ^3H thymidine or the ATP luminescence assay, or both, the activities of compounds of this invention were assayed against the following cancer cell lines: HCT-15 (colorectal cancer, multi-drug resistant (MDR)); Hep3B (liver cancer); LNCaP (prostate cancer, androgen receptor positive (AR^+)); MDA-MB-231 (breast cancer, estrogen receptor, progesterone receptor, and Her2 negative (triple negative)); A2058 (melanoma); U-87 MG (glioblastoma); NCI-H460 (NSCLC); A549 (NSCLC); HPAC (pancreatic cancer, primary); PC3 (prostate cancer, AR); BT474 (breast cancer, Her2 highly positive (Her2hi)); SKOV3 (ovarian cancer, Her2hi); 786-O (renal cancer); UO-31 (renal cancer, MDR); NCI-H740 (SCLC); DMS53 (SCLC); SK-BR3 (breast cancer, Her2hi); ZR-75 (breast cancer, estrogen receptor positive); OVCAR3 (ovarian cancer); HL-60 (APL); OVCAR8/Adr (ovarian cancer, MDR); CEM-Cl (ALL); Nomo-1 (AML); RPMI-8226 (MM)); Raji (lymphoma); SW-480 (colorectal cancer, metastatic); SW-620 (colorectal cancer); and H226 (lung cancer). (Not all compounds were assayed against all cell lines.)
(§3) Table 2 provides the data for proliferation assays using the ^3H thymidine method, with an incubation period of 72 h.

The subject of a further assay is Hep3B. The assay can be described thus: 3H thymidine proliferation assay, Hep3B. The note with it: 3H thymidine method, 72 h incubation, read-out: EC50, Hep3B. Here is the method:
as §1, §2, §3

Another assay concerns A549. The assay can be described thus: 3H thymidine proliferation assay, A549. The note with it: 3H thymidine method, 72 h incubation, read-out: EC50, A549. Here is the method: as §1, §2, §3
In another assay the test system is SKOV3. The assay is described as follows: 3H thymidine proliferation assay, SKOV3. The note with it: 3H thymidine method, 72 h incubation, read-out: EC50, SKOV3. Here is the method: as §1, §2, §3
Assay [1] relates to DMS53. The assay can be described thus: ATP luminescence proliferation assay, DMS53. The following applies: ATP luminescence, DMS53, 72 h incubation, read-out: EC50 DMS53 (72 h). The protocol: as §1, §2
(§4) Table 3 provides the data for the ATP luminescence proliferation assays, with an incubation period of 48, 72, or 96 h, as noted.

A further assay relates to SW-620. The assay is described as follows: ATP luminescence proliferation assay, SW-620. The following applies: ATP luminescence, SW-620, 96 h incubation, read-out: EC50 SW-620 (96 h). The protocol: as §1, §2, §4
Another assay concerns BT474. The assay can be described thus: ATP luminescence proliferation assay, BT474. The note with it: ATP luminescence. Here is the method:
as §1, §2, §4

The test system of the next assay is 786-O. The assay can be described thus: ATP luminescence proliferation assay, 786-O. The following applies: ATP luminescence, 786-O. The protocol:
as §1, §2
FIGS. 12a and 12b show illustrative plots for ATP luminescence proliferation assays for a second set of compounds of this invention, against HL-60 and 786-O cells, respectively, with an incubation period of 72 h. FIGS. 12c and 12d show the plots for ^3H thymidine proliferation assays for the same set of compounds, again against HL-60 and 786-O cells, respectively, with a 72 h incubation period. In each instance, doxorubicin was used as a comparative compound.
as §4

Another assay relates to MDA-MB-231. The assay can be described thus: ATP luminescence proliferation assay, MDA-MB-231. The following applies: ATP luminescence, MDA-MB-231, 72 h incubation, read-out: EC50 MDA-MB-231 (72 h). Here is the method:
as §1, §2, §4

For the next assay, the system named is ZR-75. The assay can be described thus: ATP luminescence proliferation assay, ZR-75. The following applies: ATP luminescence. Here is the method: as §1, §2, §4
The subject of assay [2] is DMS53. The assay is described as follows: 3H thymidine proliferation assay, DMS53. The note with it: 3H thymidine method, 72 h incubation, read-out: EC50, DMS53. Here is the method: as §1, §2, §3
The test system of assay [3] is OVCAR3. The assay is described as follows: 3H thymidine proliferation assay, OVCAR3. The following applies: 3H thymidine method, 72 h incubation, read-out: EC50, OVCAR3. Here is the method: as §1, §2, §3
For assay [4], the system named is OVCAR3. The assay is described as follows: ATP luminescence proliferation assay, OVCAR3. The note with it: ATP luminescence, OVCAR3, 48 h incubation, read-out: EC50 OVCAR3 (48 h). The protocol: as §1, §2, §4
The test system of the next assay is NCI-H460. The assay can be described thus: ATP luminescence proliferation assay, NCI-H460. The note with it: ATP luminescence, NCI-H460, 72 h incubation, read-out: EC50 NCI-H460 (72 h). The protocol:
as §1, §2, §4

The next assay concerns U-87 MG. The assay is described as follows: 3H thymidine proliferation assay, U-87 MG. The following applies: 3H thymidine method, 72 h incubation, read-out: EC50, U-87 MG. Here is the method:
as §1, §2, §3

A further assay concerns A2058. The assay is described as follows: ATP luminescence proliferation assay, A2058. The note with it: ATP luminescence, A2058, 72 h incubation, read-out: EC50 A2058 (72 h). The protocol:
as §1, §2, §4

The test system of another assay is HL-60. The assay is described as follows: 3H thymidine proliferation assay, HL-60. The following applies: 3H thymidine method, 72 h incubation, read-out: EC50, HL-60. Here is the method:
as §1, §2, §3

The next assay concerns SK-BR3. The assay can be described thus: 3H thymidine proliferation assay, SK-BR3. The note with it: 3H thymidine method, 72 h incubation. The protocol:
as §1, §2, §3

[5] abbreviates: Homo sapiens, BT-474, BT474, 72 h incubation, read-out: EC50 BT474 (72 h).
The mark [6] stands for this setting: Homo sapiens, 786-0, 48 h incubation, read-out: EC50 786-O (48 h).
The mark [7] stands for this setting: Homo sapiens, ZR75, ZR-75, 72 h incubation, read-out: EC50 ZR-75 (72 h).

The source of these data is patent US20130204033A1, “ANTIPROLIFERATIVE COMPOUNDS, CONJUGATES THEREOF, METHODS THEREFOR, AND USES THEREOF” (Medarex, Inc., priority 2009, published 2013).

Read-outs that look alike come from different tables or passages of the source.

As for `COc1cccc2c1C(=O)c1c(O)c3c(c(O)c1C2=O)C[C@@](O)(C(=O)CO)C[C@@H]3O[C@H]1C[C@H](N)[C@H](O)[C@H](C)O1` [Dox, doxorubicin, reference compound], the EC50 with UO-31 (Homo sapiens, UO-31) came to 267 nM; in the assay with Hep3B (Homo sapiens, Hep3B), 44 nM; with A549 (Homo sapiens, A549), 128 nM; in the assay on SKOV3 (Homo sapiens, SK-OV-3), 163 nM; in the assay on DMS53 [1] (Homo sapiens, DMS-53), 755 nM; with SW-620 (Homo sapiens), 145 nM. For the same compound, the EC50 in the assay on BT474 (setting [5]) came out at 388 nM; in the assay with 786-O (setting [6]) it was 360 nM; with MDA-MB-231 (Homo sapiens), 518 nM; with ZR-75 (setting [7]), 236 nM; with DMS53 [2] (Homo sapiens, DMS-53) it was 979 nM; in the assay on OVCAR3 [3] (Homo sapiens, OVCAR-3) it was 258 nM. The EC50 in the assay with OVCAR3 [4] (Homo sapiens, OVCAR-3) was determined as 632 nM; with NCI-H460 (Homo sapiens) it was 92 nM; in the assay on U-87 MG (Homo sapiens, U-87 MG), 106 nM; with A2058 (Homo sapiens), 101 nM; with HL-60 (Homo sapiens, HL-60), 56 nM.

With `CC[C@H](C)[C@H](NC(=O)[C@H]1CCCCN1C)C(=O)N(C)[C@H](C[C@@H](OC)c1nc(C(=O)N[C@@H](Cc2ccc(N)cc2)CC(C)C(=O)O)cs1)C(C)C` (some centres unmarked) [Compound 51], the half-maximal effective concentration (EC50) with SK-BR3 was over 100 nM; in the assay with UO-31, 35 nM; with Hep3B, 4.2 nM; in the assay with A549 it was 7.8 nM; in the assay on SKOV3, 4.4 nM; with DMS53 [1] it was 46 nM. Moreover, the EC50 with SW-620 came out at 6.4 nM; in the assay on BT474 (BT474, 48 h incubation, read-out: EC50 BT474 (48 h)) it was 11 nM; in the assay with 786-O (72 h incubation, read-out: EC50 786-O (72 h)), 19 nM; in the assay on ZR-75 (ZR-75, 48 h incubation, read-out: EC50 ZR-75 (48 h)) it was 19 nM; with DMS53 [2], 24 nM; in the assay with OVCAR3 [3], 2.5 nM. The EC50 in the assay with OVCAR3 [4] was 5.5 nM; in the assay on NCI-H460, 14 nM; in the assay with U-87 MG, 0.75 nM; with A2058, 5.5 nM; in the assay on HL-60, 4.2 nM.

Regarding `CC[C@H](C)[C@H](NC(=O)[C@H]1CCCCN1C)C(=O)N(COC(=O)CC(C)C)[C@H](C[C@@H](OC(C)=O)c1nc(C(=O)N[C@@H](Cc2ccccc2)C[C@H](C)C(=O)O)cs1)C(C)C` [Tub D, tubulysin D, reference compound], the EC50 in the assay on UO-31 is 0.1 nM; with Hep3B it was 0.022 nM; in the assay on A549, 0.014 nM; with SKOV3, 0.039 nM; in the assay with DMS53 [1], 0.069 nM; with SW-620, 0.0058 nM. In addition, the 50% effective concentration (EC50) came out at 0.021 nM with BT474 (BT474, 72 h incubation, read-out: EC50 BT474 (72 h)); 0.022 nM in the assay with 786-O (48 h incubation, read-out: EC50 786-O (48 h)); 0.047 nM with MDA-MB-231; 0.034 nM in the assay with ZR-75 (ZR-75, 72 h incubation, read-out: EC50 ZR-75 (72 h)); 0.21 nM with DMS53 [2]; 0.051 nM with OVCAR3 [3]. In addition, the half-maximal effective concentration (EC50) in the assay with OVCAR3 [4] amounted to 0.085 nM; in the assay with NCI-H460 it was 0.0076 nM; in the assay on U-87 MG, 0.014 nM; in the assay with A2058, 0.0064 nM; with HL-60, 0.032 nM.

For `Nc1ccc(C(=O)Nc2ccc3[nH]c(C(=O)N4C[C@@H](CCl)c5c4cc(O)c4ccccc54)cc3c2)cc1` [CBI, reference compound], the EC50 with UO-31 (Homo sapiens, UO-31) was found to be 0.035 nM; in the assay with Hep3B (Homo sapiens, Hep3B) it was 0.02 nM; in the assay with A549 (Homo sapiens, A549), 0.072 nM; in the assay with SKOV3 (Homo sapiens, SK-OV-3), 0.047 nM; in the assay on DMS53 [1] (Homo sapiens, DMS-53), 3.8 nM; in the assay with SW-620 (Homo sapiens), 0.33 nM. Also, the EC50 with BT474 (setting [5]) is 5.5 nM; in the assay on 786-O (setting [6]), 1.6 nM; with MDA-MB-231 (Homo sapiens), 3.1 nM; with ZR-75 (setting [7]), 2.2 nM; in the assay on DMS53 [2] (Homo sapiens, DMS-53) it was 1.5 nM; with OVCAR3 [3] (Homo sapiens, OVCAR-3) it was 0.071 nM. Besides, the EC50 in the assay with OVCAR3 [4] (Homo sapiens, OVCAR-3) stood at 4.1 nM; in the assay with NCI-H460 (Homo sapiens) it was 0.64 nM; in the assay on U-87 MG (Homo sapiens, U-87 MG), 0.14 nM; in the assay on A2058 (Homo sapiens) it was 0.2 nM; in the assay with HL-60 (Homo sapiens, HL-60) it was 0.027 nM.

In general, EC50 refers to the midpoint of the concentration-response curve.
